± gives the expanded uncertainty stated by the source.
Details: Adiabatic calorimetry

Question: With N#CCCNc1ccccc1 [3-anilinopropanenitrile] as the compound, how does the Triple point temperature (Crystal 1) read?
Answer: Its Triple point temperature is 323.5 ± 0.1 K.

Question: And the Triple point temperature (Crystal 2)?
Answer: Its Triple point temperature is 310.63 ± 0.05 K.
